Reference: patent US20080226596A1, “Therapeutic compositions and methods useful in treating hepatitis” (priority 2006, published 2008)

Legend:
TF-1 cells = assay: TF-1 cell proliferation assay; assay type: cell-based, human
Procedure: (§1) The murine hematopoietic cell line Baf3 was maintained in RPMI 1640 medium supplemented with 10% fetal calf serum (FCS) and murine IL-3 (20 units/ml) as described previously in Damen et al., J. Biol. Chem. 270, 23402 (1995). Human myeloid cell line TF-1 was maintained in RPMI 1640 supplemented with 10% FCS and 40 ng/ml of recombinant human GM-CSF as described previously in Thomassen et al., Clin. Immunol. 95, 85 (2000). For cell proliferation assays, cells were washed in 10% FCS medium twice, resuspended in 10% FCS medium, incubated at 37° C. for 16 hours, and then cultured at 37° C. in 10% FCS medium containing various amounts of cytokines, sodium stibogluconate, or potassium antimonyl tartrate for 3-6 days as indicated. The cell numbers in proliferation assays were determined by an MTT assay or by microscopic cell counting as indicated.

[1] = test system: Stat1 tyrosine phosphorylation; assay: IFN-alpha-induced Stat1 tyrosine phosphorylation in human cancer cell lines; assay type: cell-based
Procedure: Cell lysates were prepared by lysing cells in cold lysis buffer for 30 min and cleared by centrifuging at 14,000 rpm at 4° C. for 15 min. For SDS-PAGE, cell lysates were mixed with equal volume of 2×SDS-PAGE sample buffer, heated at 90° C. for 5 min and separated in 10% SDS-PAGE gels. Cellular proteins in SDS-PAGE gels were transferred to nitrocellulose membrane (Schleicher & Schuell, Keene, N.H.), blocked in 5% milk, probed with antibodies and detected by using an enhanced chemiluminescence kit (ECL, Amersham, Arlington Heights, Ill.).

WM35 cells = assay: WM35 melanoma cell growth; assay type: cell-based, human
Procedure: For cell proliferation assays, cells were grown in 10% FCS culture medium containing various amounts of IFNs and/or sodium stibogluconate in 96 well plates and cultured at 37° C. for 3 or 6 days as indicated. The numbers of viable cells in proliferation assays were determined by MTT assays as described in Phatak et al., J. Immunol. 167, 3391 (2001).

Renca cells = assay: Renca cell growth in culture, MTT assay; assay type: cell-based, murine; conditions: SSG 6.25-200 μg/ml, 6 days; listed as SSG
Source text: Renca (Murphy, G. P., and W. J. Hrushesky. 1973. A murine renal cell carcinoma. J Natl Cancer Inst 50:1013), Jurkat (Gillis, S., and J. Watson. 1980. Biochemical and biological characterization of lymphocyte regulatory molecules. V. Identification of an interleukin 2-producing human leukemia T cell line. J Exp Med 152:1709) and WM9 (Forsberg, K., I. Valyi-Nagy, C. H. Heldin, M. Herlyn, and B. Westermark. 1993. Platelet-derived growth factor (PDGF) in oncogenesis: development of a vascular connective tissue stroma in xenotransplanted human melanoma producing PDGF-BB. Proc Natl Acad Sci USA 90:393) cell lines were obtained from a colleague at the Cleveland Clinic Foundation (CCF) and cultured in RPMI 1640 medium supplemented with 10% fetal calf serum (FCS). […] SSG has been described previously (Yi, T., M. K. Pathak, D. J. Lindner, M. E. Ketterer, C. Farver, and E. C. Borden. 2002. Anticancer activity of sodium stibogluconate in synergy with IFNs. J Immunol 169:5978). For cell growth inhibition assays, cells were cultured in absence or presence of various amounts of SSG for 6 days with viable cells quantified by MTT assays as described elsewhere (Pathak, M. K., and T. Yi. 2001. Sodium stibogluconate is a potent inhibitor of protein tyrosine phosphatases and augments cytokine responses in hemopoietic cell lines. J Immunol 167:3391).

Baf3 cells = assay: Baf3 cell proliferation assay; assay type: cell-based, murine
Procedure: as §1

NB4 cells = assay: NB4 proliferation, MTT assay; assay type: cell-based, human; conditions: 12.5-400 μg/ml
Procedure: The NB4 cell line (Lanotte et al., Blood 77, 1080 (1991)) was a gift from Dr. Dan Lindner of the Cleveland Clinic Foundation. […] and U937 cell lines were purchased from American Type Culture Collection (Rockville, Md.). These human […] cell lines were maintained in RPMI 1640 medium supplemented with 10% fetal calf serum (FCS). For cell proliferation assays, cells were cultured at 37° C. in 10% FCS medium containing various amounts of sodium stibogluconate for 6 days. The cell numbers in the cultures were determined by an MTT assay as described previously in Mosmann, J. Immunol. Methods 65, 55 (1983).

Which “effect on GM-CSF-induced cell growth” value (TF-1 cells; 12.5-50 μg/ml) does the source give for O.O.O.O.O.O.O.O.O.O=C([O-])[C@@H]1[O][Sb]2([O-])([O][Sb]34([OH])[O][C@H]([C@H](O)CO)[C@H]([O]3)[C@H](C(=O)[O-])[O]4)[O][C@H]([C@H](O)CO)[C@@H]1[O]2.[Na+].[Na+].[Na+] [sodium stibogluconate] here?
Its value is “no negative effect on GM-CSF-induced cell growth”.

What about the “GM-CSF-induced TF-1 proliferation” value (TF-1 cells; sodium stibogluconate 50 μg/ml, GM-CSF 5-40 ng/ml) of the same compound?
The value was “augmented”.

And the “Stat1 tyrosine phosphorylation by drug alone” value ([1]; DR cells, absence of IFN-alpha)?
Its value is “failed to induce Stat1 tyrosine phosphorylation”.

And the “IFN-alpha-induced Stat1 tyrosine phosphorylation” value ([1]; DU145 cells, 5 hours post-stimulation)?
The value was “Enhanced”.

What about the “IFN-alpha-induced Stat1 tyrosine phosphorylation” value ([1]; WM9 cells, 5 hours post-stimulation) of the same compound?
The value was “Enhanced”.

And the “IFN-alpha-induced Stat1 tyrosine phosphorylation” value ([1]; WM35 cells)?
Its value is “failed to enhance”.

And the “IFN-alpha-induced Stat1 tyrosine phosphorylation” value ([1]; WiT49-N1 cells)?
Its value is “failed to enhance”.

What about the “effect on WM35 cells” value (WM35 cells) of the same compound?
The value was “minimally affected”.

What about the “Renca cell growth in culture” value (Renca cells) of the same compound?
Its value is “failed to inhibit Renca cell proliferation in culture”.

What about the “IL-3-induced Baf3 growth” value (Baf3 cells; 1,000 μg/ml) of the same compound?
Its value is “suppressed IL-3-induced Baf3 growth”.

And the “Baf3 proliferation/viability” value (Baf3 cells; absence of IL-3, day 3 culture)?
Its value is “failed to support cell proliferation or maintain cell viability”.

And the “proliferation of NB4 cells” value (NB4 cells)?
The value was “markedly inhibited”.
